The term EC50 denotes the concentration at which the effect is half-maximal.

Data set [1] relates to oropharynx. In words: Sensory effects and cold discomfort of compounds given orally in ODT (general evaluation). Format: in vivo, human. The note with it: menthol at a dose of 2 mg in an ODT; icilin dose not given. As to the method:
The correlation between a chemical's potency at the TRPM8 receptor (measured by the EC50 μM) and potency to evoke sensory events in the oropharynx is complex.
When a test compound is applied to non-keratinizng bodily surfaces (e.g., oropharyngeal surface), it is possible to characterize the resulting sensations.
The sensations are akin to rapid drinking of cold water mixed and equilibrated with ice chips. The intense cold is further accentuated if the drink is acidified, for example, with lemonade. The sensations of dull and intense cold on the surface of the oropharynx can be described as painful, uncomfortable, and aversive. The term “icy cold” is used to describe these adverse intense cold sensations.
Together, these three types of sensations—“icy cold”, coldness in the chest, and systemic coldness—is termed “cold discomfort”. […] The ideal agent must have a circumscribed site of action, and the intensity of the sensation should not cause “icy cold”, coldness in the chest, or systemic chills.

Data set [2] concerns the target T1, cloned hTRPM8 channel (encoded by the human TRPM8 gene, expressed in CHO cells) (Homo sapiens, UniProt Q7Z2W7).
T1 construct: host or cells: CHO cells, stably transfected
Description: TRPM8 agonist FLIPR Fluo-8 calcium assay. Format: cell-based. The note with it: for EC50: CHO cells, Fluo-8, n=4 replicates. Here is the method:
The in vitro effects of test compounds were evaluated on cloned hTRPM8 channel (encoded by the human TRPM8 gene, expressed in CHO cells) using a Fluo-8 calcium kit and a Fluorescence Imaging Plate Reader (FLIPR^TETRA™) instrument.
Test compounds and positive control solutions were prepared by diluting stock solutions in a HEPES-buffered physiological saline (HBPS) solution. The test compound and control formulations were loaded in polypropylene or glass-lined 384-well plates, and placed into the FLIPR instrument (Molecular Devices Corporation, Union City, Calif., USA). The test compounds were evaluated at 4 or 8 concentrations with n=4 replicates per determination. […] The test cells were Chinese Hamster Ovary (CHO) cells stably transfected with human TRPM8 cDNAs.
For the FLIPR^TETRA™ assay, cells were plated in 384-well black wall, flat clear-bottom microtiter plates (Type: BD Biocoat Poly-D-Lysine Multiwell Cell Culture Plate) at approximately 30,000 cells per well. Cells were incubated at 37° C. overnight to reach a near confluent monolayer appropriate for use in a fluorescence assay. The test procedure was to remove the growth media and to add 40 μL of HBPS containing Fluo-8 for 30 min at 37° C. 10 μL of test compound, vehicle, or control solutions in HBPS were added to each well and read for 4 min.
Concentration-response data were analyzed via the FLIPR Control software that is supplied with the FLIPR System (MDS-AT) and fitted to a Hill equation of the following form: […]
where: “Base” is the response at low concentrations of test compound; “Max” is the maximum response at high concentrations; “xhalf” is the EC50, the concentration of test compound producing half-maximal activation; and “rate” is the Hill coefficient. Nonlinear least squares fits were made assuming a simple one-to-one binding model.

The test system of data set [3] is oral cavity and pharyngeal surfaces. In words: Sensory activity of ODT-A on volunteers. The note with it: 6 to 8 trials per compound. The class given is in vivo, human. As to the method: ODT-A was prepared by dissolving the DAPA compound in absolute ethanol, adding a 80% mannitol-20% maltitol mixture of equal weight and then adding an equal volume of distilled water. The mixture was the stirred with a glass rod, and dispensed onto a piece of wax or parchment paper with a disposable plastic pipette. The viscous liquid drop formed was then dried under a heat source for at least 4 hr. The nominal dose of the API in ODT-A ranged from 1 to 3 mg/tablet. The dried tablets weighed on average 150 mg each and when on the dorsal surface of the tongue, rapidly dissolved completely in saliva and coated the oropharyngeal surface. These tablets were suitable for initial pilot studies, but were not uniform in size, were friable, especially in conditions of high ambient humidity, and were not readily amenable to further analytical evaluation.
Sensory Qualities of ODT on the Oral Cavity and Pharyngeal Surfaces The DAPA ODT of Study 2 were evaluated for sensory properties on volunteers. The ODT-A results [see table] are from 6 to 8 trials per compound in several experienced individuals familiar with sensory properties of “cooling agents”. The results of ODT-A will be discussed together with ODT-B and ODT-C.

Data set [4] deals with mouth and throat. Description: Sensory activity of ODT-C on volunteers (double-blind, modified ASHRAE scale). Format: in vivo, human. The note with it: for ODT-C test results (sensation and taste in words) / duration of cooling effect: 1.2 to 1.5 mg per ODT; for ODT-C test results (sensation and taste in words): 4 volunteers; for duration of cooling effect: ODT-C; for ASHRAE equivalent: peak heat abstraction sensation, modified ASHRAE scale neutral [0] to icy cold [-4]. Here is the method:
ODT-C. More experiments were conducted to find a smaller tablet, in the range of 40 to 60 mg, with a disintegration of <10 sec. These paraemters might achieve a better pharmacological effect. ODT-B was 100 mg in size and disintegrated in <20 sec. […] For example, to 1.5 g of DAPA-2-5 is added 1.5 g of absolute ethanol, followed by 2.0 g of Neusilin US2. The mixture is shaken or mixed in a Speedmixer at 500 rpm for 1 min. The sample is placed under a heat source and about 2 hr later, the sample size is re-weighed with the expectation that the ethanol has been evaporated and the sample now weights 3.5 g. This powder is free-flowing. • b. a sample of maltitol powder is prepared (Maltisorb® P200 from Roquette). • c. a sample of Prosolv® EasyTab is prepared (JRS Pharma, Rosenburg, Germany). • d. a blend of a. [2.80 g], b. [15.73 g] and c. [31.46 g] is prepared to make 1000 ODT tablets, each weighing 50 mg and containing 1.2 mg of DAPA-2-5. • e. the blend is first shaken by hand, then placed for 2 min in a SpeedMixer at 500 rpm. The blend is poured into the funnel of a New Single Punch Tablet Press Pill Making Machine Maker TDP-1-5 [available from Amazon.com] and the extruded tablets are collected.
ODT-C, described in Study 2, were tested for sensory properties on 4 volunteers, with at least 3 trials per compound and at 1.2 to 1.5 mg per ODT. The ODT was placed on the mid-line posterior dorsal surface of the tongue and sensory effects recorded for 30 min on a standardized form […]. The ODT were coded and administered on a double-blind basis. A modified ASHRAE scale of neutral, slightly cool [-1], cool [-2], cold [-3], and icy cold [-4] was used to rank the peak heat abstraction sensations in the mouth and throat. Other perceived effects, e.g. taste and duration, were also noted.

Data set [5] relates to oropharynx. In words: Chili-pepper sauce irritation test. The class given is in vivo, human. On the set-up: key: If there was no suppression of the irritant/tickling sensations of the sauce, the value was “0”; if there was some suppression, the value was “+”; if there was complete suppression, then the value was “++.”. The note with it: ODT, sauce applied 30 min later; 6 to 8 trials per compound. From the text:
The “pain” component of inflammation includes irritation, itch, and discomfort and suppression of these endpoints is termed “anti-nociceptive”. To determine if a compound has anti-nociceptive activity, the Inventor has devised a modified capsaicin challenge method to evoke discomfort in the oropharyngx: the chili-pepper sauce irritation test. Chili-pepper sauce placed onto the posterior dorsal surface of the tongue evokes a tickling/irritant sensations in the oropharynx. The sensations associated with the chili pepper sauce are located in the back of the mouth and are clearly recognized and associated with irritation and a desire to clear the throat. In the chili-pepper sauce irritation test, the test compound is delivered using an ODT, as in Study 3, and 30 min later 0.2 to 0.25 mL of the sauce was applied onto the posterior dorsal surface of the tongue (with a syringe or a plastic stick). The chili pepper sauce used here is called Yank Sing® Chili Pepper Sauce (YS Gourmet Productions, Inc., PO Box 26189, San Francisco, Calif. 94126) and is a well-known condiment for use with dim sum (Chinese tea lunch). If there was no suppression of the irritant/tickling sensations of the sauce, the value was “0”; if there was some suppression, the value was “+”; and if there was complete suppression, then the value was “++.” For compounds that gave a ++ score, the irritative signals of the chili-pepper sauce are completely absent, yet the salty taste from the soy sauce of the condiment can still be readily tasted. A “++” result indicated suppression of the irritant effects of chili-pepper sauce. Numerical results are from 6 to 8 trials per compound.

Data set [6] has as its system throat. In words: Cold water test after ODT-A (cold discomfort). The conditions noted are these: ODT-A on the tongue, ice water drunk 10 min later. Format: in vivo, human. Also noted: key: If the subject felt “normal coolness” in the throat, the value was “0”; if the water felt “excessively cold” on the throat, it was rated as “+”; if there was “aching cold/discomfort” on the throat, the ranking was “++”. Here is the method: After application of ODT-A there were sensations associated with heat abstraction of various intensity and duration. Of particular note was the sensation of “icy or painful” cold was felt with some compounds, but the effect was variable. To isolate this sensation more precisely and reduce variability, ODT-A was placed on the tongue and 10 min later the subject was instructed to drink a mouthful of water previously equilibrated with ice chips. If the subject felt “normal coolness” in the throat, the value was “0”; if the water felt “excessively cold” on the throat, it was rated as “+”; and if there was “aching cold/discomfort” on the throat, the ranking was “++”. The term “cold discomfort” was applied compounds that produced “++”, and this phenomenon could now be reliably defined and identified with the cold water test.

For data set [7], the target named is T2, ASIC3 (acid-sensing) (Homo sapiens, UniProt Q9UHC3).
T2 construct: expressed in transfected cells
T2 sequence (Q9UHC3 1-531): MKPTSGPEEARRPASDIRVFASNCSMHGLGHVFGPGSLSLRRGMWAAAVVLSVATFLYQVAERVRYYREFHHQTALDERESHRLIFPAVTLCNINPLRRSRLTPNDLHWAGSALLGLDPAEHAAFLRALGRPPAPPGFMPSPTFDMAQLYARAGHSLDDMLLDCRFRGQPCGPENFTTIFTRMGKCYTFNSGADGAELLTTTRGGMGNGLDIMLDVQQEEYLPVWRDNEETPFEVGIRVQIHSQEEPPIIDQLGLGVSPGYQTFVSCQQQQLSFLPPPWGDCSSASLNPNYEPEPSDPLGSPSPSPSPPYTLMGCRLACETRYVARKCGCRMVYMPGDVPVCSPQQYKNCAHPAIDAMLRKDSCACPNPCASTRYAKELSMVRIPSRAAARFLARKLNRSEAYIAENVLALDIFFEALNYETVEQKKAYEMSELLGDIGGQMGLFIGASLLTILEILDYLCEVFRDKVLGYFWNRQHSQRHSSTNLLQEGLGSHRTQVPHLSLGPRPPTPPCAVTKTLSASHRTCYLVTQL
Description: Patch-clamp in transfected cells, ASIC3. The class given is cell-based. The note with it: DAPA-2-5 at 5 μM; positive control amiloride. (In general: Patch clamp records ionic current or voltage across a cell membrane.)

T1 sequence (Q7Z2W7 whole entry): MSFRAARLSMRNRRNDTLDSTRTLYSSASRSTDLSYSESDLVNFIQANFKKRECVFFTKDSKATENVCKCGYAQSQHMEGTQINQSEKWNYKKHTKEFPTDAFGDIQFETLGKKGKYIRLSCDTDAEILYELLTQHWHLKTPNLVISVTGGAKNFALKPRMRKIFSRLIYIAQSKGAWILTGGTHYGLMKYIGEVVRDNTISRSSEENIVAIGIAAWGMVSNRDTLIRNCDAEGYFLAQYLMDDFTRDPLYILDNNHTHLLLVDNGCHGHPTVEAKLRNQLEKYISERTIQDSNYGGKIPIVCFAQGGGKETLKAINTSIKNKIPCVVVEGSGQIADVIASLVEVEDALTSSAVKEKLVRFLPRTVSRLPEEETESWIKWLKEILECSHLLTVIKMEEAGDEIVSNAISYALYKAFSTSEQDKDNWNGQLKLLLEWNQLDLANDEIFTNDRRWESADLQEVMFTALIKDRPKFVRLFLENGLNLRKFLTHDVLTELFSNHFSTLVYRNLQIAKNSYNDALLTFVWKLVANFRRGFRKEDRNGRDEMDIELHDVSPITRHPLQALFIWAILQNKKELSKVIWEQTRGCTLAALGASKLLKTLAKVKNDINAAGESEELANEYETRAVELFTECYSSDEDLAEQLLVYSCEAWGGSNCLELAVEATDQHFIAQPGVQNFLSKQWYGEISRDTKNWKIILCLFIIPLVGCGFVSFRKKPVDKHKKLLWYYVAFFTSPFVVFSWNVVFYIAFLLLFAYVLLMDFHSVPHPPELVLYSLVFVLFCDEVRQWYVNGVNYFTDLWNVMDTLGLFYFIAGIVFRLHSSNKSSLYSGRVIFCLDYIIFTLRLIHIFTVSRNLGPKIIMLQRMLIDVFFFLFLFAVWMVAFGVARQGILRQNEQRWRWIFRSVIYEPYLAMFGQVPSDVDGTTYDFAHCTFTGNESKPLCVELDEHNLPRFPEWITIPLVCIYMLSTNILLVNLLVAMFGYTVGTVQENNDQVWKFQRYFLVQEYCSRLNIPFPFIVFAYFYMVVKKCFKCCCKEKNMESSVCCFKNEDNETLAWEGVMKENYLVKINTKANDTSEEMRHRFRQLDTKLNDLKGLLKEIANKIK

Regarding `O=C1NC(c2cccc([N+](=O)[O-])c2)=CCN1c1ccccc1O` [icilin, reference compound], the “sensory effects / side-effects in an ODT” value in data set [1] was “did not produce cooling in the chest or the desired sensations on the throat”. Moreover, the “rank in TRPM8 potency among the 21 compounds tested” value in data set [2] worked out at 4.
In the case of `CCCCCP(=O)(C(C)C)C(C)C` [DAPA-1-5, 1-Di(isopropyl)-phosphinoyl-pentane], in data set [3], the “Duration” value came out at 5 min, the “Onset” value is on record as 0.1 min and the “Sensory Quality” value is “cool”. The “Relative Potency to L-menthol” value in data set [2] was 0.7. For the same molecule, in data set [4], the “ODT-C test results (sensation and taste in words)” value (“ODT-C test results” below) is on record as “brief but intense cool”; the “duration of cooling effect” value is on record as under 5 min; the ASHRAE equivalent is reported as −2.7. Further, the Chili test entry in data set [5] was “++”. Also, the “Cold Discomfort” value in data set [6] amounted to 0.
With `N=C(N)NC(=O)c1nc(Cl)c(N)nc1N` [amiloride, reference compound], in data set [7], the “agonist or antagonist activity, ASIC3” value is reported as “active”.
In the case of `CCCCCCCCP(=O)(C(C)C)C(C)C` [DAPA-1-8, 1-Di(isopropyl)-phosphinoyl-octane], in data set [3], the “Duration” value was 27 min, the “Onset” value was 1.2 min and the “Sensory Quality” value was “cool”. Besides, the “Relative Potency to L-menthol” value in data set [2] turned out to be 5.4. In addition, in data set [4], the “ODT-C test results” value is listed as “strong unpleasant taste”; the “duration of cooling effect” value is given as about 15 min; the ASHRAE equivalent is −3. In data set [5], the Chili test result is reported as “+”. In addition, the “Cold Discomfort” value in data set [6] is on record as “+”.
On to `CCCCCP(=O)(CC(C)C)CC(C)C` [DAPA-3-1, 1-di(iso-butyl) phosphinoyl-pentane], for which, in data set [3], the “Duration” value amounted to 0 min, the “Onset (min)” value was “not active” and the “Sensory Quality” value is recorded as “not active”. Besides, in data set [2], the “Relative Potency to L-menthol” value is reported as 0.2 and the EC50 came out at 24 µM. This molecule also showed a Chili test in data set [5] of 0. In addition, the “Cold Discomfort” value in data set [6] is recorded as 0.
As for `CCCCP(=O)(C(C)CC)C(C)CC` (centres unmarked) [DAPA-2-4, 1-Di(sec-butyl) phosphinoyl-butane], in data set [3], the “Duration” value was 3 min, the “Onset” value is 1 min and the “Sensory Quality” value is given as “brief cool”. Besides, the “Relative Potency to L-menthol” value in data set [2] was found to be 0.3. Besides, in data set [4], the “ODT-C test results” value is given as “pleasant cool, but transient effect”; the “duration of cooling effect” value is under 5 min; the ASHRAE equivalent is −2.5. In data set [5], this molecule registered a Chili test of 0. Further, the “Cold Discomfort” value in data set [6] came to 0.
`CCC(C)P(=O)(CCC(C)C)C(C)CC` (centres unmarked) [DAPA-3-2, 1-Di(sec-butyl) phosphinoyl-3-methyl-butane]: in data set [3], the “Duration” value was 2 min, the “Onset” value was found to be 1 min and the “Sensory Quality” value is recorded as “brief cool”. Besides, in data set [2], the “Relative Potency to L-menthol” value was determined as 0.9 and the EC50 amounted to 4.2 µM. The Chili test in data set [5] was found to be 0. Moreover, the “Cold Discomfort” value in data set [6] stood at 0.
